# From patent US20260217687A1 (NeoPhore Limited, priority 2023, published 2026)
# Biological target: T1, recombinant N-terminal MLH1 (residues 15-340) (Homo sapiens, UniProt P40692)
# T1 construct: recombinant N-terminal MLH1 (residues 15-340)
# T1 sequence (P40692 15-340): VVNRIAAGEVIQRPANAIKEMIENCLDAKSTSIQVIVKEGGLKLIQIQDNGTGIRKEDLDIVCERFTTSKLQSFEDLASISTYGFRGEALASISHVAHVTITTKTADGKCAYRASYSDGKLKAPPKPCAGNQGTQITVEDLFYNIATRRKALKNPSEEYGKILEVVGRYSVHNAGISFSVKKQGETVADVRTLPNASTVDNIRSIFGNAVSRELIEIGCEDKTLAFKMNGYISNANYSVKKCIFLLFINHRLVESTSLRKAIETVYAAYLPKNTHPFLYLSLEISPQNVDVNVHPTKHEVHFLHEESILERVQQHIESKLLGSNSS
# Assay: Fluorescence Polarisation Assay for MLH1
# Assay type: binding
# Details: 100 nM N-terminal MLH1, 5 nM probe compound
# Description: Fluorescence Polarisation Assay for MLH1
# Test compounds, as 10 mM DMSO stocks, were dispensed into a 384-well Low Flange Black Flat Bottom Polystyrene Non-binding Surface plate (Corning®, item number 3575) using a Labcyte Echo acoustic liquid handler. […] 20 μL of a 2× solution (200 nM) of recombinant N-terminal MLH1 (residues 15-340) in assay buffer (25 mM HEPES, pH 7.5, 250 mM NaCl, 10 mM MgCl2, 0.01% Triton X-100, 5 mM Dithiothreitol) was added to all wells in columns 1-23 and 20 μL assay buffer was added to all wells in column 24 using an E1-ClipTip pipette (ThermoFisher). Plates were centrifuged for 1 minute at 250 xg and were incubated at room temperature for 30 minutes prior to the addition of 20 μL of 2×(10 nM) of 5-((5-(4-((2-(2-(Benzyloxy)-4,6-dihydroxybenzoyl)isoindolin-5-yl)methyl)piperazin-1-yl)pentyl)carbamoyl)-2-(6-(dimethylamino)-3-(dimethyliminio)-3H-xanthen-9-yl)benzoate (referred to hereinafter as “probe compound”) in assay buffer (prepared from a 1 mM DMSO stock) with an E1-ClipTip pipette (ThermoFisher). The final concentration of N-terminal MLH1 was 100 nM and the final concentration of the probe compound was 5 nM. Compound plates were centrifuged for 1 minute at 250 xg for 1 minute and immediately read on a PheraStar FSX (fitted with 384-well aperture spoon and 590 675 675 FP optic module). The gain and focus were adjusted before each plate was read so that the polarisation of a no enzyme control (column 24) was equal to 35 mP. Data were normalised against the no inhibitor controls (column 23) and no enzyme controls (column 24).
row,IC50,SMILES
1,< 100 nM,"CN1CC[C@@H](Oc2ccc3c(c2)CN(C(=O)c2c(O)cc(C(F)F)cc2OCc2ccccc2)C3)C1 [Example 4.55, (R)-(2-(Benzyloxy)-4-(difluoromethyl)-6-hydroxyphenyl)(5-((1-methylpyrrolidin-3-yl)oxy)isoindolin-2-yl)methanone]"
2,100 to 1000 nM,"CN(C)CCOc1cc2c(c(C(F)F)c1)CN(C(=O)c1c(O)cc(C(F)F)cc1OCc1ccccc1)CC2 [Example 4.74, (2-(Benzyloxy)-4-(difluoromethyl)-6-hydroxyphenyl)(8-(difluoromethyl)-6-(2-(dimethylamino)ethoxy)-3,4-dihydroisoquinolin-2(1H)-yl)methanone]"
3,100 to 1000 nM,"Nc1cc2c(cn1)CN(C(=O)c1c(O)cc(C(F)F)cc1OCc1ccccc1)C2 [Example 27.11, (6-Amino-1,3-dihydro-2H-pyrrolo[3,4-c]pyridin-2-yl)(2-(benzyloxy)-4-(difluoromethyl)-6-hydroxyphenyl)methanone hydroformate]"
4,100 to 1000 nM,"O=C(c1c(O)cc(C(F)F)cc1OCc1ccccn1)N1Cc2cccc(N[C@H]3CCOC3)c2C1 [Example 4.9, (S)-(4-(Difluoromethyl)-2-hydroxy-6-(pyridin-2-ylmethoxy)phenyl) (4-((tetrahydrofuran-3-yl)amino)isoindolin-2-yl) methanone]"
5,100 to 1000 nM,"CN(C)Cc1ccc2c(c1)CCN(C(=O)c1c(O)cc(C(F)F)cc1OCc1ccccc1)C2 [Example 4.43, (2-(Benzyloxy)-4-(difluoromethyl)-6-hydroxyphenyl)(6-((dimethylamino)methyl)-3,4-dihydroisoquinolin-2(1H)-yl)methanone]"
6,100 to 1000 nM,"N#Cc1cc(O)c(C(=O)N2Cc3cccc(NC4COC(=O)C4)c3C2)c(OCc2ccccc2)c1 (centres unmarked) [Example 10.19, 3-(Benzyloxy)-5-hydroxy-4-(4-((5-oxotetrahydrofuran-3-yl)amino)isoindoline-2-carbonyl)benzonitrile]"
7,1000 to 10000 nM,"N#Cc1cc(O)c(C(=O)N2Cc3ccccc3C2)c(OCc2ccccc2)c1 [Example 12.4, 3-(Benzyloxy)-5-hydroxy-4-(isoindoline-2-carbonyl)benzonitrile]"
8,100 to 1000 nM,"COc1ccc(COc2cc(C(F)F)cc(O)c2C(=O)N2CCc3cccc(N[C@H]4CCOC4)c3C2)cc1 [Example 4.11, (S)-(4-(Difluoromethyl)-2-hydroxy-6-((4-methoxybenzyl)oxy)phenyl)(8-((tetrahydrofuran-3-yl)amino)-3,4-dihydroisoquinolin-2(1H)-yl)methanone]"
9,1000 to 10000 nM,"O=C(c1c(O)cc(C(F)F)cc1OCc1ccccc1)N1CCCc2cc(NC3CCOC3)ccc21 (centres unmarked) [Example 27.19, (2-(Benzyloxy)-4-(difluoromethyl)-6-hydroxyphenyl)(6-((tetrahydrofuran-3-yl)amino)-3,4-dihydroquinolin-1(2H)-yl)methanone]"
10,1000 to 10000 nM,"CN(C)CCOc1ccc2c(c1)CCN(C(=O)c1c(O)cc(F)cc1OCc1ccccc1)C2 [Example 10.24, (2-(Benzyloxy)-4-fluoro-6-hydroxyphenyl)(6-(2-(dimethylamino)ethoxy)-3,4-dihydroisoquinolin-2(1H)-yl)methanone]"
11,100 to 1000 nM,"O=C(c1c(O)cc(C(F)F)cc1OCc1ccccc1)N1CCc2cccc(N[C@H]3CCOC3)c2C1 [Example 4.6, (S)-(2-(Benzyloxy)-4-(difluoromethyl)-6-hydroxyphenyl)(8-((tetrahydrofuran-3-yl)amino)-3,4-dihydroisoquinolin-2(1H)-yl)methanone]"
12,100 to 1000 nM,"Cn1cnc(-c2cc3c(c(N[C@H]4CCOC4)c2)CN(C(=O)c2c(O)cc(C(F)F)cc2OCc2ccccc2)CC3)c1 [Example 4.27, (S)-(2-(Benzyloxy)-4-(difluoromethyl)-6-hydroxyphenyl) (6-(1-methyl-1H-imidazol-4-yl)-8-((tetrahydrofuran-3-yl)amino)-3,4-dihydroisoquinolin-2(1H)-yl)methanone]"
13,< 100 nM,"CN1CCC(Oc2cc3c(c(N[C@H]4CCOC4)c2)CN(C(=O)c2c(O)cc(C(F)F)cc2OCc2ccccc2)C3)CC1 [Example 4.62, (S)-(2-(Benzyloxy)-4-(difluoromethyl)-6-hydroxyphenyl)(6-((1-methylpiperidin-4-yl)oxy)-4-((tetrahydrofuran-3-yl)amino)isoindolin-2-yl)methanone]"
14,1000 to 10000 nM,"N#Cc1cc(O)c(C(=O)N2Cc3cnc(N)cc3C2)c(OCc2ccccc2)c1 [Example 27.10, 4-(6-Amino-2,3-dihydro-1H-pyrrolo[3,4-c]pyridine-2-carbonyl)-3-(benzyloxy)-5-hydroxybenzonitrile hydroformate]"
15,1000 to 10000 nM,"CN1CCN(c2cc3c(cn2)CN(C(=O)c2c(O)cc(C#N)cc2OCc2ccccc2)C3)CC1 [Example 27.1, 3-(Benzyloxy)-5-hydroxy-4-(6-(4-methylpiperazin-1-yl)-2,3-dihydro-1H-pyrrolo[3,4-c]pyridine-2-carbonyl)benzonitrile]"
16,100 to 1000 nM,"CN1CCN(Cc2ccc3c(c2)CN(C(=O)c2c(O)cc(C#N)cc2OCc2ccccc2)C3)CC1 [Example 10.34, 3-(Benzyloxy)-5-hydroxy-4-(5-((4-methylpiperazin-1-yl)methyl)isoindoline-2-carbonyl)benzonitrile]"
17,100 to 1000 nM,"CN(C)CCOc1cc2c(c(N[C@@H]3CCOC3)c1)CN(C(=O)c1c(O)cc(C#N)cc1OCc1ccccc1)CC2 [Example 14, (R)-3-(Benzyloxy)-4-(6-(2-(dimethylamino)ethoxy)-8-((tetrahydrofuran-3-yl)amino)-1,2,3,4-tetrahydroisoquinoline-2-carbonyl)-5-hydroxybenzonitrile]"
18,100 to 1000 nM,"COc1cc2c(c(N[C@H]3CCOC3)c1)CN(C(=O)c1c(O)cc(C#N)cc1OCc1ccccc1)C2 [Example 10.14, (S)-3-(Benzyloxy)-5-hydroxy-4-(6-methoxy-4-((tetrahydrofuran-3-yl)amino)isoindoline-2-carbonyl)benzonitrile]"
19,100 to 1000 nM,"CN1CCN(Cc2ccc3c(c2)CCN(C(=O)c2c(O)cc(C(F)F)cc2OCc2ccccc2)C3)CC1 [Example 4.47, (2-(Benzyloxy)-4-(difluoromethyl)-6-hydroxyphenyl)(6-((4-methylpiperazin-1-yl)methyl)-3,4-dihydroisoquinolin-2(1H)-yl)methanone]"
20,100 to 1000 nM,"CC(=O)N1CC[C@H](Nc2cccc3c2CN(C(=O)c2c(O)cc(C#N)cc2OCc2ccccc2)C3)C1 [Example 10.6, (S)-4-(4-((1-Acetylpyrrolidin-3-yl)amino)isoindoline-2-carbonyl)-3-(benzyloxy)-5-hydroxybenzonitrile]"
21,100 to 1000 nM,"COc1cc(O)c(C(=O)N2Cc3cccc(N[C@H]4CCOC4)c3C2)c(OCc2ccccc2)c1 [Example 1, (S)-(2-(Benzyloxy)-6-hydroxy-4-methoxyphenyl)(4-((tetrahydrofuran-3-yl)amino)isoindolin-2-yl)methanone]"
22,100 to 1000 nM,"CNc1cc(OCCN(C)C)cc2c1CN(C(=O)c1c(O)cc(C(F)F)cc1OCc1ccccc1)CC2 [Example 4.73, (2-(Benzyloxy)-4-(difluoromethyl)-6-hydroxyphenyl)(6-(2-(dimethylamino)ethoxy)-8-(methylamino)-3,4-dihydroisoquinolin-2(1H)-yl)methanone]"
23,1000 to 10000 nM,"N#Cc1cc(O)c(C(=O)N2Cc3cccc(N[C@@H]4CCOC4)c3C2)c(OCc2ccccc2)c1 [Example 12.3, (R)-3-(Benzyloxy)-5-hydroxy-4-(4-((tetrahydrofuran-3-yl)amino)isoindoline-2-carbonyl)benzonitrile]"
24,1000 to 10000 nM,"N#Cc1cc(O)c(C(=O)N2CCc3cc(NC4CCOC4)ccc32)c(OCc2ccccc2)c1 (centres unmarked) [Example 27.4, 3-(Benzyloxy)-5-hydroxy-4-(5-((tetrahydrofuran-3-yl)amino)indoline-1-carbonyl)benzonitrile]"
25,1000 to 10000 nM,"N#Cc1cc(O)c(C(=O)N2CCCc3cc(NC4CCOC4)ccc32)c(OCc2ccccc2)c1 (centres unmarked) [Example 27.18, 3-(Benzyloxy)-5-hydroxy-4-(6-((tetrahydrofuran-3-yl)amino)-1,2,3,4-tetrahydroquinoline-1-carbonyl)benzonitrile]"
26,1000 to 10000 nM,"CN(C)Cc1ccc2c(c1)CN(C(=O)c1c(O)cc(C#N)cc1OCc1ccccc1)C2 [Example 10.15, 3-(Benzyloxy)-4-(5-((dimethylamino)methyl)isoindoline-2-carbonyl)-5-hydroxybenzonitrile]"
